Molecules are shown by their SMILES.

In assay [1] the target is recombinant human BTK protein (Homo sapiens (Human), UniProt Q06187). The experiment in a line: Measurement of BTK inhibitory activity (in vitro). The format is biochemical. To be noted: ATP 45 μM, FL-Peptide 2 substrate. The source says:
In a condition set for a method of measuring inhibitory activity in vitro of the compounds against BTK kinase activity, FL-Peptide 2 was used as a substrate, since it was described in a price list of LabChip (Registered trademark) series sample consumables of PerkinElmer Co., Ltd. that FL-Peptide 2 corresponded to a substrate peptide in a measurement of BTK kinase activity. The refined recombinant human BTK protein used in the test was purchased from Carna Biosciences, Inc.
With regard to the measurement of the inhibitory activity of the compounds, firstly, monofumarate of Compound A was diluted stepwise with dimethyl sulfoxide (DMSO). Subsequently, BTK protein, a substrate peptide (final concentration was 1 μM), magnesium chloride (final concentration was 10 mM), ATP (final concentration was 45 μM), and a DMSO solution of the test compounds (final concentration of DMSO was 5%) were added to a buffer solution for kinase reaction (20 mM HEPES (pH 7.5), 2 mM dithiotheitol, 0.01% Triton X-100), and after the solution was incubated for 40 minutes at 25° C., a kinase reaction was carried out. […] Finally, a substrate peptide that was not phosphorylated (S) and a phosphorylated peptide (P) were separated and detected by microchannel capillary electrophoresis with a LabChip EZ Reader II (PerkinElmer, Inc.). […]

Assay [2] has as its system mouse collagen-induced arthritis model. The experiment in a line: Mice collagen-induced arthritis model. It counts as in vivo, DBA/1 mice. As to conditions: 0.381 mg/kg, oral, 1 time per day, 17 days; FIG. 11. How it is done:
The test was carried out in accordance with the method described in Non-Patent Literature (Brand D D, et al., Nat Protoc. 2007; 2, 1269-1275, Xu D. et al., JPET, 2012 April; 341 (1):90-103). Seven-week-old male/DBA/1 mice (CHARLES RIVER LABORATORIES JAPAN, INC.) were intracutaneously injected in the dorsum with 100 μL/body of an equal amount-mixed solution (emulsion) of 4 mg/mL of bovine type 2 collagen solution (Collagen Research Center) and Complete Freund's Adjuvant (DIFCO Inc.) (initial immunization). After 21 days therefrom, the mice were intracutaneously injected in the chine with 100 μL/body of an equal amount-mixed solution (emulsion) of 4 mg/mL of bovine type 2 collagen solution (Collagen Research Center) and Complete Freund's Adjuvant (DIFCO) to provide an additional immunization. The oral administration of 1 time per day was continued for 17 days setting the administration initiation day (day 0) as the eighth day from the additional immunization. Symptoms of arthritis in day 0, day 3, day 7, day 10, day 14 and day 17 were scored macroscopically (0: No change, 1: Swelling of a finger, 2: Swelling of two fingers or more, 3: Swelling of instep, 4: Swelling of all fingers extending wrist/ankle), and a total in four limbs was obtained as a point of individual body (maximum 16 points).

recombinant human BTK protein, sequence (Q06187 whole entry): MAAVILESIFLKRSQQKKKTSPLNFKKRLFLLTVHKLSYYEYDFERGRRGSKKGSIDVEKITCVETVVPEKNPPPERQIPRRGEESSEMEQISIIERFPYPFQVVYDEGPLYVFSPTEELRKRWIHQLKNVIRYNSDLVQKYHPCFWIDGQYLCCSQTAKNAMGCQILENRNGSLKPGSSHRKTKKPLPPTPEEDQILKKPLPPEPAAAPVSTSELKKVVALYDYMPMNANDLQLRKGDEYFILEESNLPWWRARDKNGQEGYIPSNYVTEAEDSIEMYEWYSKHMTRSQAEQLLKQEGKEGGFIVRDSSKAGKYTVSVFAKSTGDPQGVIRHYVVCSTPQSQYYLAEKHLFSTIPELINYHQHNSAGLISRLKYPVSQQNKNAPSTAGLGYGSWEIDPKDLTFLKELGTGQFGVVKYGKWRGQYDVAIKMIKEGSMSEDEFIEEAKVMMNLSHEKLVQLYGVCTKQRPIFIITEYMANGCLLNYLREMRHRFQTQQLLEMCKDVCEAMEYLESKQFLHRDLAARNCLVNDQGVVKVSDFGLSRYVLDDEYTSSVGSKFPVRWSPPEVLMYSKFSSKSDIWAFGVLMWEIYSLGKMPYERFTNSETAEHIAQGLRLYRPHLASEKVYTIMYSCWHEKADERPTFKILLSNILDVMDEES

Consider `C=CC(=O)N1CCC[C@@H](n2nc(C(=O)Nc3nc4ccccc4o3)c3c(N)ncnc32)C1.O=C(O)/C=C/C(=O)O` [monofumarate of Compound A, (R)-1-(1-acryloylpiperidin-3-yl)-4-amino-N-(benzo[d]oxazol-2-yl)-1H-pyrazolo[3,4-d]pyrimidine-3-carboxamide.monofumarate], for which the IC50 (as a rule, the concentration at which inhibition is half-maximal) in assay [1] is 1.19 nM. Besides, the arthritis score entry in assay [2] is “lowered the arthritis score effectively”.

The values above are taken from patent US10280174B2, “Salt of fused pyrimidine compound and crystal thereof” (TAIHO PHARMACEUTICAL CO., LTD., priority 2015, dated 2019).
